{"source": "paper PMC9977937", "about": "“Molecular insights into the catalytic mechanism of plasticizer degradation by a monoalkyl phthalate hydrolase” (Communications Chemistry, 2023)", "key": {"[1]": {"biological_target": "T1, MehpH (Gordonia sp. P8219, UniProt Q2MHH5)", "T1 construct": "synthetic gene in pET30a, His-tagged, E. coli BL21(DE3)", "T1 sequence (Q2MHH5 1-311)": "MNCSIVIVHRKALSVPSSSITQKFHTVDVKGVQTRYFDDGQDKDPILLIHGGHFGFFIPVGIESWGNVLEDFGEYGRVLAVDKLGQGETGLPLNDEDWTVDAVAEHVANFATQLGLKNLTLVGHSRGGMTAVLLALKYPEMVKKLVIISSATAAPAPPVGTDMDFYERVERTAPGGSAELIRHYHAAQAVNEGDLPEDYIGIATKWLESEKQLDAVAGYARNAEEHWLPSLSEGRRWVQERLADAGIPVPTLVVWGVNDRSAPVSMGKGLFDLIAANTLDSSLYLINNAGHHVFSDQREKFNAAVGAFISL", "assay": "HPLC of MBP and PA at […] nm", "format": "biochemical", "details": "1.0 mM MBP, 1.0 µM enzyme, 10% DMSO"}, "[2]": {"biological_target": "T2, MehpH (crystallization construct) (Gordonia sp. P8219, UniProt Q2MHH5, D259N)", "T2 construct": "N-terminal 23 residues deleted (core 24-152 and 225-311, lid 153-224), His-tagged, pET30a, E. coli BL21(DE3); four molecules per asymmetric unit", "T2 sequence (Q2MHH5 entry or part of it D259N)": "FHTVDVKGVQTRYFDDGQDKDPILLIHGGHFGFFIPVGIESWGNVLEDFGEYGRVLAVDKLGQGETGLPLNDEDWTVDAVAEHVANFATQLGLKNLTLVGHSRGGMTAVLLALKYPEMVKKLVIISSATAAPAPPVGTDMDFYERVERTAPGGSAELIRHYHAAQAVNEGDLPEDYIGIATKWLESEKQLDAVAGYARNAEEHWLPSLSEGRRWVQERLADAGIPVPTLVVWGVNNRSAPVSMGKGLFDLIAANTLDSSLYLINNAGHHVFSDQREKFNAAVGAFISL", "assay": "X-ray crystallography, […] Å", "format": "binding", "details": "pH 6.2, 16 °C"}}, "data": [{"smiles": "CCCCOC(=O)c1ccccc1C(=O)O", "note": "[MBP, monobutyl phthalate]", "values": [{"measurement": "HPLC of MBP and PA at 254 nm", "setting": "[1]", "value": "Hydrolytic activities of MehpH and its variants using MBP as substrate"}]}, {"smiles": "O=C(O)c1ccccc1C(=O)O", "note": "[PA, phthalic acid]", "values": [{"measurement": "X-ray crystallography, 2.8 Å", "setting": "[2]; covalent ester with Ser125 (acyl-enzyme intermediate), crystals of the D259N mutant with MBP", "value": "The shape of the electron density is consistent with that of PA"}]}, {"smiles": "CCCCO", "note": "[butanol]", "values": [{"measurement": "X-ray crystallography, 2.8 Å", "setting": "[2]; non-covalent, in penetrating tunnel next to active site, one of four molecules, crystals with MBP", "value": "we discovered the electron density of butanol in the penetrating tunnel"}]}]}
